The values below are quoted from earlier work in US20140271529A1, “ANTIFUNGAL COMPOSITIONS FOR THE TREATMENT OF SECONDARY SKIN AND NAIL INFECTIONS” (ALC Therapeutics, LLC, priority 2013, published 2014).

For data set [1] the following is noted: 14C-labelled griseofulvin dissolved in the solvent; human skin in vitro.
The conditions of data set [2]: human, in vivo.

For `C[S+](C)[O-]` [DMSO, dimethylsulfoxide], the “ratios of penetration of griseofulvin in the various solvents” value (from here on “ratios of penetration of griseofulvin”) in data set [1] is 60.
As to `CCO` [alcohol], the “ratios of penetration of griseofulvin” value in data set [1] is 3.
For `c1ccccc1` [benzene], the “ratios of penetration of griseofulvin” value in data set [1] is 1.
For `CN(C)C=O` [dimethylformamide], in data set [1], the “ratios of penetration of griseofulvin” value was 7.
panitumumab: in data set [2], the “acute paronychia, patients affected” value is recorded as at most 45%.
